Data taken from US9655965B2, “Radiosensitizer compounds for use in combination with radiation” (priority 2013, dated 2017).
Entries after “also recorded” stand apart in the source; their conditions may differ.

Assays:
[1] = test system: various human cancer cells; experiment: In vitro radiosensitizing effects in various human cancer cells (FIG. 14-21); assay type: cell-based; conditions: 12 hr treatment, then various doses of 225 keV X-ray
Text: (§1) Dibromo-diamino-benzene (Dibromo-phenylenediamine, Compound B) was obtained from TCI—America. Diiodo-diaminobenzene (Compound C) were synthesized, purified and crystallized in our laboratory, and the structures and purity were examined by NMR and mass spectrometry. MEM and fetal bovine serum (FBS), penicillin G and streptomycin were obtained from Hyclone Laboratories (UT, USA). Stock solution of cisplatin was freshly prepared in ultrapure water or saline, and stock solutions of Compounds A, B, C, D were prepared in pure ethanol, where the final concentration of ethanol was ≦1% when treated to cells.
(§2) A human skin diploid fibroblast (GM05757 cell line) was obtained from the Coriell Cell Repository directly, while the human cervical cancer cell line (HeLa, ATCC#: CCL-2; or ME-180), human ovarian cancer cell line (NIH:OVCAR-3, ATCC#: HTB-161) and human lung cancer cell line (A549, ATCC#: CCL-185™), together with RPMI 1640, F-12K, McCoy's 5 A and L-15 culture media, were obtained from the American Type Culture Collection (ATCC) directly. Fetal bovine serum (FBS) was obtained from Hyclone Laboratories (UT, USA). The GM05757 normal cells and HeLa cells were cultivated with MEM (Hyclone) supplemented with 10% FBS, 100 units/mL penicillin G and 100 μg/mL streptomycin (Hyclone). The complete growth media for ME-180, NIH:OVCAR-3, A549 and MDA-MB-231 cells were the ATCC-formulated McCoy's 5 A Medium supplemented with 10% FBS, RPMI 1640 medium with 20%, F-12K medium with 10% FBS, and L-15 Medium (Leibovitz) with 10% FBS, respectively. The cells were maintained at 37° C. in a humidified atmosphere containing 5% CO2.
(§3) The radiosensitizing effects of RSCs on cell viability were determined by the 3-[4,5-dimethylthiazol-2-yl]-2,5-diphenyl tetrazoliumbromide (MTT) assay. Cells were cultured in 96-well plates (5×10^3 cells/well) for 24 h. The culture medium was replaced by fresh culture medium and incubated for 12 h with varying drug concentrations. The cells were then irradiated by 225 kV X-ray (PRECISION X-RAD IR 225) at a dose rate of 2 Gy/min with various X-ray doses. After irradiation, the cells were incubated for 6 days. The MTT assay of cell viability was then conducted. Briefly, 100 μl new medium without phenol red containing 1.2 mM MTT (sigma) (i.e., adding 10 μl 12 mM MTT stock solution in PBS) were added to each well and incubated for 4 h. The medium was then removed, and the formazan crystals solubilized by 100 μL/well DMSO (or alternatively by 100 μl/well SDS and incubated for another 4 h). The surviving fraction was determined by measuring the absorbance at 540 nm (570 nm for SDS solubilization) using a Multiskan Spectrum UV/Vis microplate reader (Thermo Scientific), which is directly proportional to the number of viable cells.

[2] = test system: plasmid DNA [pGEM 3Zf(−)]; experiment: Agarose gel electrophoresis of ionizing-radiation-induced damage to plasmid DNA; assay type: biochemical, Escherichia Coli JM 109; conditions: 200 μM compound; two-UV-photon ionizing radiation of water; versus pure water
Text: Ultrapure water for life science with a resistivity of >18.2 MΩ/cm and TOC<1 ppm obtained freshly from a Barnstead Nanopure water system was used. Dibromo-diamino-benzene (Dibromo-phenylenediamine, Compound B) was obtained from TCI-America, while other chemicals and buffer compositions were obtained from Sigma-Aldrich. Plasmid DNA [pGEM 3Zf(−), […]] was extracted from Escherichia Coli JM 109 and purified using QIAprep Kit (Qiagen).
The pump beam at 322 nm, identical to that for fs-TRLS measurements, was used to produce radicals via two-photon excitation of water in DNA solutions. The laser beam was focused into a quartz cell containing 3.0 μg of DNA in 200 μL of buffer solutions. The solutions were stirred during irradiation to produce uniform DNA damage throughout the samples. Aliquots equivalent to 96 ng DNA were removed from the sample cell in various irradiation times for gel electrophoresis. All aliquots were analyzed with a standard agarose gel electrophoresis method, namely, on 1% neutral TAE agarose gel in TAE running buffer. The gel was prestained with 0.5 μg/ml ethidium bromide. […] They were quantified with an AlphaEase FC software.

[3] = test system: human cervical cancer (ME-180) cells; experiment: In vitro radiosensitizing effect, MTT assay 6 days after X-ray, ME-180; assay type: cell-based
Text: as §1, §2, §3

[4] = test system: human cervical cancer (ME-180) xenograft; experiment: Xenograft mouse tumor model of human cervical cancer (ME-180) in female SCID mice; assay type: in vivo
Protocol: The four groups in the experiment were: (1) control article (5% EtOH/medium); (2) 15 Gy X-ray irradiation; (3) Compound B at 7 mg/kg in 5% EtOH/medium and (4) Compound B at 7 mg/kg in 5% EtOH/medium plus 15 Gy X-ray irradiation, as shown in Table 2.
ME-180 (human cervical cancer) cells were cultured in the ATCC-formulated McCoy's 5 A Medium supplemented with 10% FBS. The cells in a flask were maintained at 37° C. in a humidified atmosphere containing 5% CO2. The cells were rinsed with PBS, trypsined for detachment from the bottom of the flask, mixed with fresh growth medium, and centrifuged to remove the supernatant. The cells were re-suspend with fresh medium to appropriate concentration for inoculation. Injection volume was 50 μl (1×10^6 cells) per animal.
ME-180 tumour cells were implanted subcutaneously into female SCID mice (age 6-8 weeks) in a volume of 50 μL into the left gastrocneumius muscle using a 27-gauge needle. This was established as a subcutaneous (SC) xenograft mouse model of human cervical cancer.
Mice were individually weighed and injected intraperitoneally according to body weight for an injection concentration as outlined in the study group table above. The injection volume was based on 200 μL per 20 g mouse. The skin surface was wiped down with 70% isopropyl alcohol to clean the injection site. Radiation was given using X-rad 225 targeted irradiator to the tumors.
Tumor size was measured as a function of time to assess tumor growth delay associated with treatment using slide caliper and […]. Animals were also weighed at the time of tumour measurement. Tumours in mice were allowed to grow to a maximum of 1000 mm^3 before termination.

## Nc1cc(Br)c(Br)cc1N [Compound B, 4,5-dibromo-1,2-phenylenediamine]
[1]
  killing of cancer cells in combination with radiation: enhanced the killing of cancer cells in a radiation dose dependent manner and in synergy with radiation; also recorded: enhances the effectiveness of ionizing radiation to kill tumor cells
[2]
  radiation-induced DNA double-strand breaks (DSBs): significantly enhanced; also recorded: significant enhancement of DSBs
[3]; ME-180, 12-hr treatment, 0-10 Gy 225 keV X-ray, MTT at 6 days
  enhancement of radiosensitivity of cancer cells to X-ray: significant enhancement in the radiosensitivity
[3]; ME-180, 50 Gy x-ray with about 100 μM compound, about 20% survived without any RSC
  killing of cancer cells: early all cancer cells were killed
[4]; 7 mg/kg IP 1 hr prior to 15 Gy 225 keV x-ray, versus radiation or compound only
  suppression of tumor growth: significantly enhanced the suppression of tumor growth
[4]; 7 mg/kg plus 15 Gy x-ray, single doses
  tumor growth delay: very significant tumor growth delay in vivo till 21 days
[4]; 7 mg/kg plus 15 Gy x-ray, tumor volumes and MRI, Day 21
  shrinkage of the tumor: significant shrinkage of the tumor in mice; also recorded: most significant shrinkage of the tumor in mice
